# Measured values from patent publication US10111890B2, “9-aminomethyl minocycline compounds and uses thereof” (Paratek Pharmaceuticals, Inc., priority 2016, dated 2018).
# Experiments:
# [1] = Phase 3 oral omadacycline vs oral linezolid in ABSSSI: safety (adverse events, TEAEs, vital signs, ECG, laboratory); type: in vivo; conditions: safety population
# Description: An Adverse Event (AE) is any untoward, undesired, or unplanned event in the form of signs, symptoms, disease, or laboratory or physiologic observations occurring in a person given a test article or in a clinical study. […] An AE includes, but is not limited to, the following: any clinically significant worsening of a preexisting condition; an AE occurring from overdose of a test article, whether accidental or intentional; overdose is a dose greater than that specified in the protocol; an AE occurring from abuse (e.g., use for nonclinical reasons) of a test article; and an AE that has been associated with the discontinuation of the use of a test article.
# The severity (or intensity) of an AE was classified using the following criteria:
# Concerning relatedness, causality (i.e., whether there was a reasonable possibility that test article caused the event) for all AEs and SAEs was assessed.
# Safety variables include the incidence rate of AEs, change in vital signs, ECG parameters and laboratory test results obtained during the course of the study. For safety analyses, subjects were analyzed according to the treatment actually received.
# Summary tables were provided for all treatment-emergent adverse events (TEAEs). A TEAE is defined as an AE with a start date and time on or after the first dose of test article. […] Additional tabulations provide summaries by SOC and PT of subjects experiencing SAEs, severe TEAEs, TEAEs judged to be related to test article, TEAEs leading to discontinuation of test article, and TEAEs of special interest.
# The following variables were analyzed descriptively: Vital signs (systolic and diastolic BP, pulse rate, body temperature, respiratory rate), including change from Screening by visit; Clinically notable vital signs (meeting predefined criteria as specified in the SAP) by visit. Subjects with notable vital signs data were listed.
# ECG data (RR interval, PR interval, QRS interval, QTc, QTc Bazett's Correction Formula [QTcB], and QTc Fridericia's Correction Formula [QTcF]) was summarized descriptively at each scheduled evaluation, and for the overall worst post-Screening value. Changes from Screening at each visit that a 12-lead ECG was obtained was also provided. An outlier analysis was conducted based on the worst post-Screening value.
# The following variables were analyzed descriptively: Laboratory variables by visit; Change from Screening of laboratory variables by visit; and Clinically notable laboratory values (meeting predefined criteria specified in the SAP) by visit.
# [2] = human, in vivo
# [3] = test system: ABSSSI known or suspected to be due to Gram-positive pathogens; assay: Phase 3 oral omadacycline vs oral linezolid in ABSSSI: Investigator's Assessment of Clinical Response at PTE; type: in vivo, human
smiles,measurement,setting,value
"CN(C)c1cc(CNCC(C)(C)C)c(O)c2c1C[C@H]1C[C@H]3[C@H](N(C)C)C(O)=C(C(N)=O)C(=O)[C@@]3(O)C(O)=C1C2=O [Omadacycline, 9-[(2,2-dimethyl-propylamino)-methyl]-minocycline]",Subjects who died,[1],0 n (%)
same,Subjects with at Least One Adverse Events (AE),[1],201 (54.6) n (%)
same,Subjects with at Least One Drug-Related Serious TEAE,[1],0 n (%)
same,Subjects with at Least One Drug-Related TEAE,[1],139 (37.8) n (%)
same,Subjects with at Least One Serious TEAE,[1],5 (1.4) n (%)
same,Subjects with at Least One Serious TEAE leading to Death,[1],0 n (%)
same,Subjects with at Least One Serious TEAEs leading to premature discontinuation of test article,[1],3 (0.8) n (%)
same,Subjects with at Least One Severe TEAE,[1],6 (1.6) n (%)
same,Subjects with at Least One TEAE Leading to Study Drug Discontinuation,[1],6 (1.6) n (%)
same,Subjects with at Least One TEAE leading to dose interruption,[1],0 n (%)
same,Subjects with at Least One TEAE leading to premature discontinuation of study,[1],3 (0.8) n (%)
same,Subjects with at Least One TEAE leading to premature discontinuation of test article,[1],6 (1.6) n (%)
same,TEAE leading to study drug discontinuation: Cellulitis,[1],1 (0.3) n (%)
same,TEAE leading to study drug discontinuation: Gastrointestinal Disorders (SOC),[1],1 (0.3) n (%)
same,TEAE leading to study drug discontinuation: Haematemesis,[1],1 (0.3) n (%)
same,TEAE leading to study drug discontinuation: Infections And Infestations (SOC),[1],4 (1.1) n (%)
same,TEAE leading to study drug discontinuation: Nausea,[1],1 (0.3) n (%)
same,TEAE leading to study drug discontinuation: Pregnancy,[1],1 (0.3) n (%)
same,"TEAE leading to study drug discontinuation: Pregnancy, Puerperium And Perinatal Conditions (SOC)",[1],1 (0.3) n (%)
same,TEAE leading to study drug discontinuation: Staphylococcal Bacteraemia,[1],1 (0.3) n (%)
same,TEAE leading to study drug discontinuation: Subcutaneous Abscess,[1],1 (0.3) n (%)
same,TEAE leading to study drug discontinuation: Vomiting,[1],1 (0.3) n (%)
same,TEAE leading to study drug discontinuation: Wound Infection,[1],1 (0.3) n (%)
same,TEAE: Alanine Aminotransferase Increased,[1],19 (5.2) n (%)
same,TEAE: Aspartate Aminotransferase Increased,[1],17 (4.6) n (%)
same,TEAE: Cellulitis,[1],12 (3.3) n (%)
same,TEAE: Headache,[1],13 (3.5) n (%)
same,TEAE: Wound Infection,[1],22 (6.0) n (%)
same,Total Number of AEs,[1],468
same,Total Number of TEAEs,[1],448
same,Subjects with at Least One TEAE,[1]; AE overview,197 (53.5) n (%)
same,TEAE: Abdominal Pain Upper,[1]; all severities,10 (2.7) n (%)
same,TEAE: Diarrhea,[1]; all severities,15 (4.1) n (%)
same,TEAE: Nausea,[1]; all severities,111 (30.2) n (%)
same,TEAE: Vomiting,[1]; all severities,62 (16.8) n (%)
same,"Subjects with at Least One TEAE, Mild",[1]; highest severity Mild,120 (32.6) n (%)
same,"TEAE: Abdominal Pain Upper, Mild",[1]; highest severity Mild,9 (2.4) n (%)
same,"TEAE: Abdominal Pain, Mild",[1]; highest severity Mild,3 (0.8) n (%)
same,"TEAE: Diarrhea, Mild",[1]; highest severity Mild,13 (3.5) n (%)
same,"TEAE: Gastrointestinal Disorders (SOC), Mild",[1]; highest severity Mild,105 (28.5) n (%)
same,"TEAE: Nausea, Mild",[1]; highest severity Mild,83 (22.6) n (%)
same,"TEAE: Vomiting, Mild",[1]; highest severity Mild,44 (12.0) n (%)
same,"Subjects with at Least One TEAE, Moderate",[1]; highest severity Moderate,71 (19.3) n (%)
same,"TEAE: Abdominal Pain Upper, Moderate",[1]; highest severity Moderate,1 (0.3) n (%)
same,"TEAE: Abdominal Pain, Moderate",[1]; highest severity Moderate,3 (0.8) n (%)
same,"TEAE: Diarrhea, Moderate",[1]; highest severity Moderate,2 (0.5) n (%)
same,"TEAE: Gastrointestinal Disorders (SOC), Moderate",[1]; highest severity Moderate,39 (10.6) n (%)
same,"TEAE: Nausea, Moderate",[1]; highest severity Moderate,28 (7.6) n (%)
same,"TEAE: Vomiting, Moderate",[1]; highest severity Moderate,18 (4.9) n (%)
same,"Subjects with at Least One TEAE, Severe",[1]; highest severity Severe,6 (1.6) n (%)
same,"TEAE: Abdominal Pain Upper, Severe",[1]; highest severity Severe,0 n (%)
same,"TEAE: Abdominal Pain, Severe",[1]; highest severity Severe,0 n (%)
same,"TEAE: Diarrhea, Severe",[1]; highest severity Severe,0 n (%)
same,"TEAE: Gastrointestinal Disorders (SOC), Severe",[1]; highest severity Severe,0 n (%)
same,"TEAE: Nausea, Severe",[1]; highest severity Severe,0 n (%)
same,"TEAE: Vomiting, Severe",[1]; highest severity Severe,0 n (%)
same,Subjects with at Least One TEAE,[1]; most frequent (≥2%) TEAEs table,197 (53.5) n (%)
same,"discontinuation due to TEAE, % of subjects",[2],1.9%
same,"serious TEAEs, % of subjects",[2],3.4%
same,"treatment-emergent adverse events (TEAEs), % of subjects",[2],48.3%
same,"Difference in Overall Clinical Success rate at PTE, omadacycline minus linezolid",[3]; CE-PTE,2.3%
same,Overall clinical response at PTE: Clinical Success,"[3]; Cellulitis/erysipelas, actual type of infection, investigator assessment, mITT",76 (88.4) n (%)
